Experimental data: BigSolDB 2.1

COc1ccccc1N1CCN(CC(O)COc2cccc3ccccc23)CC1 (centres undefined)
solubility (mole fraction)
Conditions	273.15 K	278.15 K	283.15 K	288.15 K	293.15 K	298.15 K	303.15 K	308.15 K	313.15 K
in acetone	0.00318	0.00399	0.00481	0.00579	0.00676	0.00782	0.00894	0.0102	0.0118
in acetonitrile	0.00113	0.00132	0.00156	0.00182	0.00208	0.00244	0.0028	0.00321	0.00372
in ethanol	0.000817	0.000955	0.00112	0.00131	0.00152	0.00175	0.00198	0.00229	0.00266
in ethyl acetate	0.00438	0.00503	0.00585	0.0067	0.00768	0.0087	0.00998	0.0112	0.0126
in methanol	0.00056	0.000636	0.000719	0.000822	0.000922	0.00104	0.00118	0.00133	0.0015
in toluene	0.00534	0.00633	0.00727	0.00847	0.00978	0.0113	0.0129	0.0149	0.017
